Source: patent publication US7279314B2, “Chemical substance having morphogenetic and growth-accelerating activities” (Marine Biotechnology Institute Co., Ltd., priority 2002, dated 2007)

Key:
[1] = Solubility (physicochemical properties); conditions: for Solubility in hydrated solvent: aqueous methanol or aqueous acetonitrile, percentage range given per compound; for Solubility in less-polar organic solvents: such as hexane or chloroform (Me1H1W4: chloroform and toluene)
[2] = system: Monostroma oxyspermum; assay: Minimum effective concentration (MEC) for thallus formation in Monostroma oxyspermum culture; format: cell-based
Experimental: One ml of modified ASP7 medium was added in the wells of the first row of 48-well microtitre plates (Iwaki, hereafter abbreviated as 48-MTP) and 0.9 ml of modified ASP7 medium was added in the wells of the second and subsequent rows. Eleven μl of the active substance fraction of the target was added individually and mixed well by pipetting in the wells on the first row, followed by adding 100 μl of this mixed solution to the wells on the next row. By repeating this procedures subsequently for 8 to 18 times for each fraction, a ten-fold serial dilution can be prepared in 8 to 18 steps. 100 μl that remained in solution in the wells on the last row was discarded. Here, 100 μl of Monostroma oxyspermum culture medium was diluted subsequently so that the final cell concentration of 10 to 20 cells per 1 ml, was delivered to all wells of 48-MTP to bring the total amount of solution to 1 ml. […] The MEC is used as an index for isolation.
Similar to the case of Example 1, isolated and purified novel chemical substance 1 was serially diluted in 16 steps starting with the final concentration of 1 μg/ml. At this time, the Monostroma oxyspermum cell number was adjusted to be 20 cells per 1 ml of the medium. Fresh pipet tips were used for each step dilution. Three sets of these series were prepared and were cultivated for 3 days under the same condition as Example 1. […] Based on this, the MEC of the novel chemical substance 1 will be as follows.
Similar to Example 5, the MEC of the novel chemical substance 1 and its derivatives are measured and the results are shown below.

[3] = Stability of the substances; format: physicochemical
[4] = system: Ulva pertusa; assay: Culturing experiment of Ulva pertusa; format: cell-based; conditions: 1 ng/ml in ASP7 medium, vs control group without addition (FIG. 15)
Experimental: (§1) Spores obtained from the Ulva pertusa and Enteromorpha intestinalis collected from Miho Shimizu-city, Shizuoka were washed using their phototaxis activity in the ASP7 medium supplemented with the antibiotics, and then were transferred to rectangular petri dishes filled with sterilized covered glasses and aseptized for 5 days. When the free-living cells had attached to the cover glasses and had start growing, each cover glass was placed in each hole of 6-MTP, followed by adding 10 ml of the ASP7 medium not supplemented with antibiotics. For a test group, the novel chemical substance 1 was added to result in 1 ng/ml and for the control group, nothing was added. They were incubtaed for 7 days under the same conditions as in Example 1. […], the cover glasses of the test group and control section were transferred to the culture test tube containing the medium prepared under the same condition to further incubate another 7 days. […] In addition, the ASP7 medium supplemented with antibiotics is an ASP medium, having the following composition and containing 2% antibiotics.

[5] = system: Enteromorpha intestinalis; assay: Culturing experiment of Enteromorpha intestinalis; format: cell-based; conditions: 1 ng/ml in ASP7 medium, vs control group without addition (FIG. 16)
Experimental: as §1

[6] = thallus formation of Monostroma oxyspermum, measured similar to Example 5

CC1(C)CCC[C@]2(C)C3C[C@H]4c5ccc(CO)nc5CO[C@@]4(CO)O[C@]3(C)CC[C@@H]12 (stereo partly shown) [Me1H1W4]
Solubility in hydrated solvent [1]: soluble
Solubility in non-polar solvent ([1]; such as hexane): hardly soluble
Solubility in less-polar organic solvents [1]: soluble
Solubility in water [1]: Poorly soluble

CC1(C)CCC[C@]2(C)C3CC(c4ccc(C(=O)O)nc4C(=O)O)=C(C(=O)O)O[C@]3(C)CC[C@@H]12 (stereo partly shown) [Novel Chemical Substance 1]
MEC ([2]; cultivated for 3 days, 20 cells per 1 ml, thallus formation at 12-step ten-fold dilution from 1 μg/ml): 1 ag/ml
MEC after 10 days cultivation ([2]; cultivated for 10 days, six-step dilution from 1 μg/ml): 1 pg/mL
Thallus state ([2]; seven-step dilution, final concentration 1×10^−7 μg/ml, cultivated for 10 days (FIG. 13)): the disrupted thallus is observed
Thallus state ([2]; six-step dilution, final concentration 1×10^−6 μg/ml, cultivated for 10 days (FIG. 14)): The thallus was maintained without being collapsed
MEC [2, 6]: 10^−12 μg/ml
Stability ([3]; general statement): quite stable
Stability ([3]; substance induced under alkali condition): relatively stable
Development and thallus formation [4]: normal development and thallus formation were observed
Development and thallus formation [5]: normal development and thallus formation were observed

CC1(C)CCC[C@]2(C)C3CC(c4ccc(CO)nc4CO)=C(CO)O[C@]3(C)CC[C@@H]12 (stereo partly shown) [Me1H1]
MEC [2, 6]: No activity
Solubility in hydrated solvent [1]: soluble
Solubility in less-polar organic solvents [1]: soluble
Solubility in water [1]: hardly soluble

COC(=O)C1=C(c2ccc(C(=O)OC)nc2C(=O)OC)CC2[C@@](C)(CC[C@H]3C(C)(C)CCC[C@]23C)O1 (stereo partly shown) [Me1]
MEC [2, 6]: 10^−4 μg/ml
Solubility in DMSO ([1]; DMSO): hardly soluble
Solubility in hydrated solvent [1]: soluble
Solubility in less-polar organic solvents [1]: hardly soluble
Solubility in water [1]: hardly soluble
